In US20170367394A1, “PROCESS FOR INCREASING THE STABILITY OF A COMPOSITION COMPRISING POLYUNSATURATED OMEGA-6 FATTY ACIDS” (Evonik Degussa GmbH, priority 2014, published 2017):

Assays:
Assay type in all cases: physicochemical
[1] = Anisidine Value (AV, secondary oxidation products) according to Ph. Eur. 2.5.36, before and after storage at 50° C. exposed to air; settings: for Anisidine Value: as obtained / as supplied (experiments 1-4)
Protocol: An exemplary procedure for determining the Anisidine Value (AV) of a sample is performed as follows:
The anisidine value is defined as 100 times the optical density measured in a 1 cm cell of a solution containing 1 g of the substance to be examined in 100 ml of a mixture of solvents and reagents according to the following method. Carry out the operations as rapidly as possible, avoiding exposure to actinic light.
Test solution (a): Dissolve 0.500 g of the substance to be examined in trimethylpentane and dilute to 25.0 ml with the same solvent.
Test solution (b): To 5.0 ml of test solution (a) add 1.0 ml of a 2.5 g/I solution of p-anisidine in glacial acetic acid, shake and store protected from light.
Reference solution: To 5.0 ml of trimethylpentane add 1.0 ml of a 2.5 g/I solution of p-anisidine in glacial acetic acid, shake and store protected from light. Measure the absorbance of test solution (a) at the maximum at 350 nm using trimethylpentane as the compensation liquid. Measure the absorbance of test solution (b) at 350 nm exactly 10 min after its preparation, using the reference solution as the compensation liquid. Calculate the anisidine value (AV) from the expression:
(§1) Primary oxidation products (hydroperoxides at double bonds) were quantified by determining the Peroxide Value (PV) according to Ph. Eur. 2.5.5 (01/2008:20505). Secondary oxidation products (carbonyl compounds) were quantified by determining the Anisidine Value (AV) according to Ph. Eur. 2.5.36 (01/2008:20536).
(§2) 30 g each of the liquid ethyl arachidonic acid glycerin ester and the gamma-linolenic acid ethyl ester used in experiments 1 and 2 as well as of the arachidonic acids and the gamma-linolenic acid obtained in experiments 1 and 2 were filled into 500 ml Schott Duran glass bottles.
(§3) About 30 g each of the solid lysine-salts ARA-Lys and GLA-Lys obtained in experiments 3 and 4 were filled Schott Duran glass bottles.
(§4) All of the bottles were placed together with opened lids in a drying oven with an opened ventilation valve at 50° C. and stored in the dark under these conditions for 81 days.

[2] = Peroxide Value (PV, primary oxidation products) according to Ph. Eur. 2.5.5, before and after storage at 50° C. exposed to air
Protocol: An exemplary procedure for determining the Peroxide Value (PV) of a sample is performed as follows:
Peroxide value=(S−B)*N thiosulfate*1000/weight of sample
as §1, §2, §3, §4

[3] = Oligomer content by gel-chromatography (GPC, RI detector); settings: as obtained
Protocol: Oligomeric PUFA constituents as well as their derivatives (collectively referred to as oligomer content) were quantified by gel-chromatographic means (GPC, styroldivinylbenzene-phase with tetrahydrofuran containing trifluoroacetic acid used as eluent). A refractive index (RI) detector was used for detection. Due to the fact that specific response factors of the constituents of the samples were unknown, proportions were calculated based upon fractional proportions of the total area of chromatograms.

[4] = t = 81 days, open bottles, 50° C., exposed to air, in the dark

Arachidonic acid-L-Lysine Salt [ARA-Lys]
Anisidine Value [1]: 1
Anisidine Value (AV) ([1]; t = 0, before storage): 1 A/g
Anisidine Value (AV) [1, 4]: <1 A/g
Peroxide Value ([2]; as obtained (experiments 1-4)): < 1 mmol/kg
Peroxide Value (PV) ([2]; t = 0, before storage): <1 mmol/kg
Peroxide Value (PV) [2, 4]: <1 mmol/kg
Oligomer content [3]: 1.1 area-%

CCCCC/C=C\C/C=C\C/C=C\CCCCC(=O)OCC [GLA-OEt, gamma-linolenic acid ethyl ester]
Anisidine Value [1]: 19.1
Anisidine Value (AV) ([1]; t = 0, before storage): 19.1 A/g
Anisidine Value (AV) [1, 4]: 1237 A/g
Peroxide Value ([2]; commercially available starting material as supplied): 52.1 mmol/kg
Peroxide Value (PV) ([2]; t = 0, before storage): 52.1 mmol/kg
Peroxide Value (PV) [2, 4]: 86.3 mmol/kg

Gamma-Linolenic acid-L-Lysine Salt [GLA-Lys]
Anisidine Value [1]: 5.4
Anisidine Value (AV) ([1]; t = 0, before storage): 5.4 A/g
Anisidine Value (AV) [1, 4]: <1 A/g
Peroxide Value ([2]; as obtained (experiments 1-4)): 1.0 mmol/kg
Peroxide Value (PV) ([2]; t = 0, before storage): 1.0 mmol/kg
Peroxide Value (PV) [2, 4]: <1 mmol/kg
Oligomer content [3]: 0.6 area-%

CCCCC/C=C\C/C=C\C/C=C\CCCCC(=O)O [GLA-OH, gamma-linolenic acid]
Anisidine Value [1]: 7.6
Anisidine Value (AV) ([1]; t = 0, before storage): 7.6 A/g
Anisidine Value (AV) [1, 4]: 137 A/g
Peroxide Value ([2]; as obtained (experiments 1-4)): 5.6 mmol/kg
Peroxide Value (PV) ([2]; t = 0, before storage): 5.6 mmol/kg
Peroxide Value (PV) [2, 4]: 1.3 mmol/kg
Oligomer content [3]: 0.3 area-%

CCCCC/C=C\C/C=C\C/C=C\C/C=C\CCCC(=O)O [ARA-OH, all-cis-5,8,11,14-eicosatetraenoic acid]
Anisidine Value [1]: 4.2
Anisidine Value (AV) ([1]; t = 0, before storage): 4.2 A/g
Anisidine Value (AV) [1, 4]: 211 A/g
Peroxide Value ([2]; as obtained (experiments 1-4)): 7.2 mmol/kg
Peroxide Value (PV) ([2]; t = 0, before storage): 7.2 mmol/kg
Peroxide Value (PV) [2, 4]: 5.8 mmol/kg
